Results reported in patent publication US7964735B2, “Insecticidal 3-acylaminobenzanilides” (Bayer Cropscience AG, priority 2005, dated 2011).

System: organic phosphorus agent- and carbamate agent-resistant Myzus persicasypii
Assay: Test to organic phosphorus agent- and carbamate agent-resistant Myzus persicasypii (spray on eggplant)
Type: in vivo
Settings: efficacious component concentration 500 ppm; sprayed on eggplant; 28° C.; after 7 days from spraying
Method: (§1) • Sample Solution Preparation • Solvent: dimethylformamide 3 part by weight • Emulsifier: polyoxyethylene alkyl phenyl ether 1 part by weight
(§2) To prepare a proper active compound, the active compound 1 part by weight was mixed with the above-mentioned solvent containing the above-mentioned emulsifier and the mixture was diluted with water to a prescribed concentration.
30 grown organic phosphorus agent- and carbamate agent-resistant Myzus persicasypii were inoculated in each vinyl pot with 6 cm diameter in which eggplant seeding was done and after 1 day from the inoculation, the above produced active compound diluted with water to have a prescribed concentration was sufficiently sprayed by a spray gun. After the spraying, the vinyl pots were left in a greenhouse at 28° C. and the insect extermination ratio was calculated after 7 days from spraying. The test was repeated two times.
In the case of CCc1cc(C(F)(C(F)(F)F)C(F)(F)F)cc(C)c1NC(=O)c1cccc(NC(=O)c2cnccc2C(F)(F)F)c1 [Compound 1, 3-[4-(trifluoromethyl)nicotinyl]amino-N-(2-ethyl-6-methyl-4-heptafluoroisopropylphenyl)benzamide], the “insecticidal ratio (insect extermination ratio)” value is reported as 100%.
For CCc1cc(C(F)(C(F)(F)F)C(F)(F)F)cc(C)c1NC(=O)c1cccc(NC(=O)c2ccccc2Cl)c1 [Compound 57], the “insecticidal ratio (insect extermination ratio)” value was 100%.
For CCc1cc(C(F)(C(F)(F)F)C(F)(F)F)cc(C)c1NC(=O)c1cccc(NC(=O)c2cccc(Cl)c2)c1 [Compound 58], the “insecticidal ratio (insect extermination ratio)” value was 100%.
For CCc1cc(C(F)(C(F)(F)F)C(F)(F)F)cc(C)c1NC(=O)c1cccc(NC(=O)c2ccc(F)cc2)c1 [Compound 61], the “insecticidal ratio (insect extermination ratio)” value was 100%.
For CCc1cc(C(F)(C(F)(F)F)C(F)(F)F)cc(C)c1NC(=O)c1cccc(NC(=O)c2ccccc2F)c1 [Compound 63], the “insecticidal ratio (insect extermination ratio)” value was 100%.
For Cc1cc(C(F)(C(F)(F)F)C(F)(F)F)cc(C)c1NC(=O)c1cccc(NC(=O)c2ccc(Cl)cc2)c1F [Compound 139], the “insecticidal ratio (insect extermination ratio)” value was 100%.

System: not given
Assay: not given
Settings: not given
Work on Cc1cc(C(F)(C(F)(F)F)C(F)(F)F)cc(C)c1NC(=O)c1cccc(NC(=O)c2ccccc2Cl)c1 [Compound 75, 3-(2-chlorobenzoyl)amino-N-(2,6-dimethyl-4-heptafluoroisopropylphenyl)benzamide] yielded a melting point of 141 to 145 °C.

System: third stage larvae of Spodoptera litura
Assay: Test to larvae of Spodoptera litura (leaf immersion)
Type: in vivo
Settings: efficacious component concentration 20 ppm; batata leaves immersed; 25° C.; after 7 days; average of two dishes
Method: as §1, §2
Leaves of batata were immersed in the sample solution diluted with water to a prescribed concentration and then the solution was dried out by air and the resulting leaves were put in a laboratory dish and 10 third stage larvae of Spodoptera litura were released and put in a greenhouse at a temperature 25° C. and the leaves of batata were added on second day and fourth day and the number of dead larvae was investigated after 7 days and the ratio of the dead larvae was calculated.
The results were the averages of two laboratory dishes for respective 1 group in this test.
With CCc1cc(C(F)(C(F)(F)F)C(F)(F)F)cc(C)c1NC(=O)c1cccc(NC(=O)c2cnccc2C(F)(F)F)c1 [Compound 1, 3-[4-(trifluoromethyl)nicotinyl]amino-N-(2-ethyl-6-methyl-4-heptafluoroisopropylphenyl)benzamide] the “insecticidal ratio (ratio of the dead larvae)” value was 100%.
In the case of CCc1cc(C(F)(C(F)(F)F)C(F)(F)F)cc(C)c1NC(=O)c1cccc(NC(=O)c2ccc(Cl)nc2)c1 [Compound 3], the “insecticidal ratio (ratio of the dead larvae)” value is reported as 100%.
For CCc1cc(C(F)(C(F)(F)F)C(F)(F)F)cc(C)c1NC(=O)c1cccc(NC(=O)c2ncc(C(F)(F)F)cc2Cl)c1 [Compound 13], the “insecticidal ratio (ratio of the dead larvae)” value was 100%.
For CCc1cc(C(F)(C(F)(F)F)C(F)(F)F)cc(C)c1NC(=O)c1cccc(NC(=O)c2cc(Cl)sc2Cl)c1 [Compound 24], the “insecticidal ratio (ratio of the dead larvae)” value was 100%.
For CCc1cc(C(F)(C(F)(F)F)C(F)(F)F)cc(C)c1NC(=O)c1cccc(NC(=O)c2cccs2)c1 [Compound 30], the “insecticidal ratio (ratio of the dead larvae)” value was 100%.
In the case of CCc1cc(C(F)(C(F)(F)F)C(F)(F)F)cc(C)c1NC(=O)c1cccc(NC(=O)c2ccco2)c1 [Compound 32], the “insecticidal ratio (ratio of the dead larvae)” value is reported as 100%.
For CCc1cc(C(F)(C(F)(F)F)C(F)(F)F)cc(C)c1NC(=O)c1cccc(NC(=O)c2snnc2C)c1 [Compound 35], the “insecticidal ratio (ratio of the dead larvae)” value was 100%.
In the case of CCc1cc(C(F)(C(F)(F)F)C(F)(F)F)cc(C)c1NC(=O)c1cccc(NC(=O)c2ccccc2I)c1 [Compound 36], the “insecticidal ratio (ratio of the dead larvae)” value is reported as 100%.
For Cc1cc(C(F)(C(F)(F)F)C(F)(F)F)cc(I)c1NC(=O)c1cccc(NC(=O)c2ccccc2Cl)c1 [Compound 37], the “insecticidal ratio (ratio of the dead larvae)” value was 100%.
In the case of CCc1cc(C(F)(C(F)(F)F)C(F)(F)F)cc(C)c1NC(=O)c1cccc(NC(=O)c2ccccc2Cl)c1 [Compound 38], the “insecticidal ratio (ratio of the dead larvae)” value is reported as 100%.
With CCc1cc(C(F)(C(F)(F)F)C(F)(F)F)cc(C)c1NC(=O)c1cccc(NC(=O)c2ccc(OC(F)(F)F)cc2)c1 [Compound 39] the “insecticidal ratio (ratio of the dead larvae)” value was 100%.
For CCc1cc(C(F)(C(F)(F)F)C(F)(F)F)cc(C)c1NC(=O)c1cccc(NC(=O)c2ccccc2Br)c1 [Compound 40], the “insecticidal ratio (ratio of the dead larvae)” value was 100%.
For CCc1cc(C(F)(C(F)(F)F)C(F)(F)F)cc(C)c1NC(=O)c1cccc(NC(=O)c2cccc(Br)c2)c1 [Compound 41], the “insecticidal ratio (ratio of the dead larvae)” value was 100%.
In the case of CCc1cc(C(F)(C(F)(F)F)C(F)(F)F)cc(C)c1NC(=O)c1cccc(NC(=O)c2ccc(Br)cc2)c1 [Compound 42], the “insecticidal ratio (ratio of the dead larvae)” value is reported as 100%.
For CCc1cc(C(F)(C(F)(F)F)C(F)(F)F)cc(C)c1NC(=O)c1cccc(NC(=O)c2ccc(Cl)c(Cl)c2)c1 [Compound 43], the “insecticidal ratio (ratio of the dead larvae)” value was 100%.
In the case of CCc1cc(C(F)(C(F)(F)F)C(F)(F)F)cc(C)c1NC(=O)c1cccc(NC(=O)c2ccc(Cl)cc2Cl)c1 [Compound 44], the “insecticidal ratio (ratio of the dead larvae)” value is reported as 100%.
For CCc1cc(C(F)(C(F)(F)F)C(F)(F)F)cc(C)c1NC(=O)c1cccc(NC(=O)c2cc(Cl)cc(Cl)c2)c1 [Compound 45], the “insecticidal ratio (ratio of the dead larvae)” value was 100%.
For CCc1cc(C(F)(C(F)(F)F)C(F)(F)F)cc(C)c1NC(=O)c1cccc(NC(=O)c2c(Cl)cccc2Cl)c1 [Compound 46], the “insecticidal ratio (ratio of the dead larvae)” value was 100%.
With CCc1cc(C(F)(C(F)(F)F)C(F)(F)F)cc(C)c1NC(=O)c1cccc(NC(=O)c2cccc(Cl)c2Cl)c1 [Compound 47] the “insecticidal ratio (ratio of the dead larvae)” value was 100%.
In the case of CCc1cc(C(F)(C(F)(F)F)C(F)(F)F)cc(C)c1NC(=O)c1cccc(NC(=O)c2cc(Cl)ccc2Cl)c1 [Compound 48], the “insecticidal ratio (ratio of the dead larvae)” value is reported as 100%.
For CCc1cc(C(F)(C(F)(F)F)C(F)(F)F)cc(C)c1NC(=O)c1cccc(NC(=O)c2ccc(C(F)(F)F)cc2)c1 [Compound 49], the “insecticidal ratio (ratio of the dead larvae)” value was 100%.
In the case of CCc1cc(C(F)(C(F)(F)F)C(F)(F)F)cc(C)c1NC(=O)c1cccc(NC(=O)c2ccccc2C(F)(F)F)c1 [Compound 51], the “insecticidal ratio (ratio of the dead larvae)” value is reported as 100%.
In the case of CCc1cc(C(F)(C(F)(F)F)C(F)(F)F)cc(C)c1NC(=O)c1cccc(NC(=O)c2c(F)cc(F)cc2F)c1 [Compound 52], the “insecticidal ratio (ratio of the dead larvae)” value is reported as 100%.
With CCc1cc(C(F)(C(F)(F)F)C(F)(F)F)cc(C)c1NC(=O)c1cccc(NC(=O)c2ccccc2[N+](=O)[O-])c1 [Compound 53] the “insecticidal ratio (ratio of the dead larvae)” value was 100%.
In the case of CCc1cc(C(F)(C(F)(F)F)C(F)(F)F)cc(C)c1NC(=O)c1cccc(NC(=O)c2c(F)cccc2F)c1 [Compound 54], the “insecticidal ratio (ratio of the dead larvae)” value is reported as 100%.
With CCc1cc(C(F)(C(F)(F)F)C(F)(F)F)cc(C)c1NC(=O)c1cccc(NC(=O)c2cccc(F)c2F)c1 [Compound 55] the “insecticidal ratio (ratio of the dead larvae)” value was 100%.
With CCc1cc(C(F)(C(F)(F)F)C(F)(F)F)cc(C)c1NC(=O)c1cccc(NC(=O)c2ccc(F)cc2F)c1 [Compound 56] the “insecticidal ratio (ratio of the dead larvae)” value was 100%.
With CCc1cc(C(F)(C(F)(F)F)C(F)(F)F)cc(C)c1NC(=O)c1cccc(NC(=O)c2cccc(Cl)c2)c1 [Compound 58] the “insecticidal ratio (ratio of the dead larvae)” value was 100%.
For CCc1cc(C(F)(C(F)(F)F)C(F)(F)F)cc(C)c1NC(=O)c1cccc(NC(=O)c2ccc(Cl)cc2)c1 [Compound 59], the “insecticidal ratio (ratio of the dead larvae)” value was 100%.
With CCc1cc(C(F)(C(F)(F)F)C(F)(F)F)cc(C)c1NC(=O)c1cccc(NC(=O)c2ccc(OC)cc2)c1 [Compound 60] the “insecticidal ratio (ratio of the dead larvae)” value was 100%.
In the case of CCc1cc(C(F)(C(F)(F)F)C(F)(F)F)cc(C)c1NC(=O)c1cccc(NC(=O)c2ccc(F)cc2)c1 [Compound 61], the “insecticidal ratio (ratio of the dead larvae)” value is reported as 100%.
In the case of CCc1cc(C(F)(C(F)(F)F)C(F)(F)F)cc(C)c1NC(=O)c1cccc(NC(=O)c2cccc(F)c2)c1 [Compound 62], the “insecticidal ratio (ratio of the dead larvae)” value is reported as 100%.
With CCc1cc(C(F)(C(F)(F)F)C(F)(F)F)cc(C)c1NC(=O)c1cccc(NC(=O)c2ccccc2F)c1 [Compound 63] the “insecticidal ratio (ratio of the dead larvae)” value was 100%.
With CCc1cc(C(F)(C(F)(F)F)C(F)(F)F)cc(C)c1NC(=O)c1cccc(NC(=O)c2ccc(C)cc2)c1 [Compound 64] the “insecticidal ratio (ratio of the dead larvae)” value was 100%.
For CCc1cc(C(F)(C(F)(F)F)C(F)(F)F)cc(C)c1NC(=O)c1cccc(NC(=O)c2ccccc2C)c1 [Compound 66], the “insecticidal ratio (ratio of the dead larvae)” value was 100%.
With Cc1cc(C(F)(C(F)(F)F)C(F)(F)F)cc(C)c1NC(=O)c1cccc(NC(=O)c2c(F)cccc2F)c1 [Compound 72] the “insecticidal ratio (ratio of the dead larvae)” value was 100%.
In the case of Cc1cc(C(F)(C(F)(F)F)C(F)(F)F)cc(C)c1NC(=O)c1cccc(NC(=O)c2ccc(Cl)cc2)c1 [Compound 77], the “insecticidal ratio (ratio of the dead larvae)” value is reported as 100%.
For Cc1cc(C(F)(C(F)(F)F)C(F)(F)F)cc(C)c1NC(=O)c1cccc(NC(=O)c2ccccc2)c1 [Compound 88], the “insecticidal ratio (ratio of the dead larvae)” value was 100%.
For Cc1cc(C(F)(C(F)(F)F)C(F)(F)F)cc(C)c1NC(=O)c1cccc(NC(=O)c2ccccc2Cl)c1F [Compound 134], the “insecticidal ratio (ratio of the dead larvae)” value was 100%.
For Cc1cc(C(F)(C(F)(F)F)C(F)(F)F)cc(C)c1NC(=O)c1cccc(NC(=O)c2ccc(Cl)cc2)c1F [Compound 139], the “insecticidal ratio (ratio of the dead larvae)” value was 100%.
